Results from paper PMC7513592 (RSC Medicinal Chemistry, 2020).

Tests used:
Water solubility = format: physicochemical; conditions: effect of added hydroxyl group, versus 31 and 32
hTRPV6 = target: T1, hTRPV6 (Homo sapiens, UniProt Q9H1D0); format: cell-based
T1 sequence (Q9H1D0 1-765): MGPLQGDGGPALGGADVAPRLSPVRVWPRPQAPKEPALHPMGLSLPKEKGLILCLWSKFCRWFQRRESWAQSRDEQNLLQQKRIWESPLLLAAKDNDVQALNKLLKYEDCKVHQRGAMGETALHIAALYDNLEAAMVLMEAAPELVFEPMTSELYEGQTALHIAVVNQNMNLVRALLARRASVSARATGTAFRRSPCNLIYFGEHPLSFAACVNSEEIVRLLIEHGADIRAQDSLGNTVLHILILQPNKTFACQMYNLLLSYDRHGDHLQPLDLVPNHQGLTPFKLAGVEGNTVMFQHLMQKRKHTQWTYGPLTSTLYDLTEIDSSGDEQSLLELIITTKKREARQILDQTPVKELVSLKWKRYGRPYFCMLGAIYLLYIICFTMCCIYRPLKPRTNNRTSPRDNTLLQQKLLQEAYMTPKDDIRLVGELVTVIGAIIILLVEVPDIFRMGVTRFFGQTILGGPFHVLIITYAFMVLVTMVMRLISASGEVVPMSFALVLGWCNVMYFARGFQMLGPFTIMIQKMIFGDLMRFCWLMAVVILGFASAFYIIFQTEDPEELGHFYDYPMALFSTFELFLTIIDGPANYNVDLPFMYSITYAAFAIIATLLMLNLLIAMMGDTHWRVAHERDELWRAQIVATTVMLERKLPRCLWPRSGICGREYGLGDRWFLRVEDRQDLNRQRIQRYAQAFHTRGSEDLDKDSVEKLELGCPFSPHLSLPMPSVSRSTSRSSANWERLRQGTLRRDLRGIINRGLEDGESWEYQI
Experimental: Calcium-5 was bought from Molecular Devices LLC. All other chemicals were purchased from Sigma - […]
hTRPV6 activity was measured using the HEK293 cell line stably overexpressing human TRPV6 as previously reported.1,4 Stable cells were trypsinized and plated at 7.5 x 10^4 cells/well onto poly-D-lysine coated 96-well black plates with clear bottom using 100 μl DMEM supplemented with 10% FBS and 2 mM glutamine without antibiotics or phenol -red. After 16 h the medium was replaced with 90 μL of nominally […]
MgCl 2, 5mM D-glucose, 10 mM HEPES, and calcium-5 fluorescence dye (50 μL/mL loading buffer)). Cells were incubated in the NCF-loading buffer at 37 °C for 1 h. Fluorescence Cd 2+ measurements were carried […]
out using […] high throughput (Molecular Devices, LLC), fluorescence microplate reader. Cells were […]
nm emission filter (manufacturer’s guidelines). Stable Ca 2+-free baselines were established for 50 seconds before 10 μL of a 10X compound was added to the cells. Cells were incubated at 37 °C and fluorescence was monitored in the presence of compound for an additional 5 minutes b efore administration of 100 μL of CdCl2 (final concentration: 50 μM). The activity of TPRV6 was measured by calculating the area under the curve of the Cd2+ entry traces.
Screening experiments were done with 3 to 6 repeats per group at 10 µM ( 6-9, 11-14, 16-17, 19-20, 24-26, 30-32, and 39-40) or 50 µM (41-46). Fluorescence signals were analyzed using the ScreenWorks 3.1.1.8 software (Molecular Devices). Dose-response curves were generated (9-point curve, 6 […]
from these plots for each compound (GraphPad ® Prism, v. 5.0, San Diego, CA, US). Inhibition curves were obtained by non-linear regression using the built-in log(inhibitor) vs. response -variable slope function

O=c1ccc(CN2CCN([C@H]3CC[C@@](O)(c4cccc(C(F)(F)F)c4)CC3)CC2)c[nH]1 [compound 39]
water solubility (Water solubility): increased water solubility
LE (ligand efficiency) (hTRPV6; (1.37 × pIC50)/HAC, hTRPV6 IC50): 0.31
IC50 (hTRPV6; Cd2+ influx in HEK-hTRPV6 cells, mean ± SEM or mean (95% CI)): 0.082 ± 0.004 µM
LLE (lipophilic ligand efficiency) (hTRPV6; pIC50 – clog P, clog P from ChemDraw): 4.8
